# According to patent US20230407373A1 (priority 2020, published 2023):
# “Also recorded” adds a separate entry of the source. Like-named read-outs stand apart in the source and are kept apart here.
# Legend:
# HCoV-OC43 gRNA and sgRNA = format: binding; details: for target (unweighted spectral count): OC43 Probe II, infected cells; for target (unweighted spectral count) / target (unweighted spectral count, OC43 Probe II capture): tested against no-probe control; for target (unweighted spectral count, OC43 Probe II) / background (unweighted spectral count, no-probe control): type n_48_v, 48 hpi; for target (unweighted spectral count, OC43 Probe II): OC43 Probe II capture on infected cells; for background (unweighted spectral count, no-probe control): no-probe control on infected cells; for target (spectral count) / background (spectral count): type s_36_m, Probe II; for target (spectral count): HCoV-OC43-infected HCT-8 cells; for background (spectral count): uninfected-probe control; for target (unweighted spectral count, OC43 Probe II capture): FDR<10%
# SARS-CoV-2 gRNA = format: binding; details: for target (unweighted spectral count of the protein in the RNP capture): LC-MS/MS, Probe I sample (first 199 lines of Table 2)
# [1] = system: SARS-CoV-2 gRNA and sgRNAs; format: binding; details: for target (unweighted spectral count in RNP capture): Probe II capture, LC-MS/MS LFQ; for background (unweighted spectral count in control): no-probe control pull-down, used as background for Probe II; for target (unweighted spectral count of the protein in the RNP capture experiment): LC-MS/MS label-free quantification, probe pool not given; for back-ground (unweighted spectral count of the protein in the control experiment): protein background of the control (e.g. no-probe) experiment
# gRNA of HCoV-OC43 = format: binding; details: for target (spectral count, OC43 Probe I RNP capture) / background (spectral count, no-probe control): type n_48_v: 48 hours post-infection; for target (spectral count, OC43 Probe I RNP capture): infected cells, unweighted spectral count; for background (spectral count, no-probe control): no-probe control on infected cells; for target (spectral count) / background (spectral count): type g_36_m, 36 hpi, Probe I; for target (spectral count): HCoV-OC43-infected HCT-8 cells; for background (spectral count): uninfected-probe control
# SARS-CoV-2 = format: cell-based; details: Calu-3 cells, 50 nM siRNA, RT-qPCR, relative to siNC
Substance,target (unweighted spectral count) (HCoV-OC43 gRNA and sgRNA; 24 hpi (type n_24_v)),"target (unweighted spectral count, OC43 Probe II) (HCoV-OC43 gRNA and sgRNA)","background (unweighted spectral count, no-probe control) (HCoV-OC43 gRNA and sgRNA)",target (spectral count) (HCoV-OC43 gRNA and sgRNA; 36 hpi),background (spectral count) (HCoV-OC43 gRNA and sgRNA; 36 hpi),target (unweighted spectral count of the protein in the RNP capture) (SARS-CoV-2 gRNA; […]),target (unweighted spectral count in RNP capture) [1],background (unweighted spectral count in control) [1],"target (spectral count, OC43 Probe I RNP capture) (gRNA of HCoV-OC43)","background (spectral count, no-probe control) (gRNA of HCoV-OC43)","target (unweighted spectral count, OC43 Probe II capture) (HCoV-OC43 gRNA and sgRNA; 36 hpi, type n_36_v)",target (spectral count) (gRNA of HCoV-OC43),background (spectral count) (gRNA of HCoV-OC43),target (unweighted spectral count) (HCoV-OC43 gRNA and sgRNA; 12 hpi (type n_12_v)),further results
"DHX9: host protein, UniProt Q08211",13,31,4,27,3,15,11,1,24,4,,,,,
"EIF4H: host protein, UniProt Q15056",,9,1,8,1,25,31,1,9,1,8,8,1,,"target (unweighted spectral count, OC43 Probe II capture) (HCoV-OC43 gRNA and sgRNA; 24 hpi, type n_24_v): 5; enrichment in SARS-CoV-2 Probe I RNP capture (SARS-CoV-2 gRNA): enriched; also recorded: found in the SARS-CoV-2 experiments; enrichment in SARS-CoV-2 Probe II RNP capture [1]: enriched; also recorded: found in the SARS-CoV-2 experiments"
"ELAVL1: host protein, UniProt Q15717",17,36,2,40,7,77,74,1,50,2,40,38,6,9,enrichment in SARS-CoV-2 Probe I RNP capture (SARS-CoV-2 gRNA): found in the SARS-CoV-2 experiments; enrichment in SARS-CoV-2 Probe II RNP capture [1]: found in the SARS-CoV-2 experiments
HNRNPAB,,27,2,,,44,44,1,37,2,21,,,10,
HNRNPU,40,72,8,,,75,,3,80,8,69,,,24,
"ILF2: host protein, UniProt Q12905",7,17,3,,,12,,,14,3,15,16,2,4,target (unweighted spectral count of the protein in the RNP capture experiment) [1]: 5; back-ground (unweighted spectral count of the protein in the control experiment) [1]: 1
"PABPC1: host protein, UniProt P11940",18,26,2,29,3,29,,,23,2,23,22,1,7,enrichment in SARS-CoV-2 Probe I RNP capture (SARS-CoV-2 gRNA): enriched; also recorded: found in the SARS-CoV-2 experiments; enrichment in SARS-CoV-2 Probe II RNP capture [1]: enriched; also recorded: found in the SARS-CoV-2 experiments
"PTBP3: host protein, UniProt O95758",7,12,2,8,1,23,,1,14,2,8,11,1,,enrichment in SARS-CoV-2 Probe I RNP capture (SARS-CoV-2 gRNA): found in the SARS-CoV-2 experiments; enrichment in SARS-CoV-2 Probe II RNP capture [1]: found in the SARS-CoV-2 experiments
SAFB2,,7,1,,,8,,,9,1,5,,,,target (unweighted spectral count of the protein in the RNP capture experiment) [1]: 6; back-ground (unweighted spectral count of the protein in the control experiment) [1]: 1
"TAF15: host protein, UniProt Q92804",,8,1,8,1,,8,1,11,1,,,,5,"target (unweighted spectral count in RNP capture) (SARS-CoV-2 gRNA; Probe I capture, […], LC-MS/MS LFQ): 5; background (unweighted spectral count in control) (SARS-CoV-2 gRNA; no-probe control pull-down, used as background for Probe I): 1"
TARDBP,20,22,3,,,28,30,1,28,3,19,,,10,
"TRIM25: host protein, UniProt Q14258",,13,3,,,,20,1,,,,14,1,,"target (unweighted spectral count, OC43 Probe II capture) (HCoV-OC43 gRNA and sgRNA; 24 hpi, type n_24_v): 5; change in viral RNA levels (gRNA, N sgRNA) after siRNA depletion (SARS-CoV-2): increased viral RNAs"
XRCC6,7,17,1,,,10,9,1,12,1,11,,,,
"YBX3: host protein, UniProt P16989",10,,,,,41,73,1,,,,13,2,7,
